A short description of data set [1]: Auranofin dose tolerance studies (maximum tolerated dose). The format is in vivo, BALB/c mice. The source says: These findings led us to develop and assess injectable (i.v. and i.p.) formulations of auranofin. By defining maximum tolerated dose (MTD) following i.v. and i.p. administration of solution and suspension formulations of auranofin, our intent was to evaluate auranofin alone and in combination with ganetespib at MTD in mouse xenograft studies using the more convenient i.p. route of administration. Following administration of the solution formulation of auranofin i.v. and i.p., the maximum tolerated dose was estimated at 1 mg/kg and 6 mg/kg, respectively. Following a single i.p. suspension dose of auranofin, the maximum tolerated dose was 16 mg/kg. This dose was reduced to 12 mg/kg and dose tolerance was evaluated after 5 daily doses of auranofin suspension i.p. to determine the effects of the accumulation of gold in the blood due to the slow elimination of gold. Based on the i.p. suspension dose tolerance studies, the auranofin suspension formulation and dose level of 12 mg/kg was selected for evaluation in xenograft mouse studies.
The auranofin dose tolerance and pharmacokinetics study protocols were approved by the KU-Lawrence Institutional Animal Care and Use Committee (KU-IACUC). Subchronic dose tolerance studies were conducted in BALB/c mice to support the design of EWS mouse xenograft studies. By establishing the Maximum Tolerated Dose (MTD), we defined the upper limit of doses selected for EWS mouse xenograft and in vivo pharmacokinetics studies. Mice received a single dose of auranofin solution and suspension administered by i.v. and i.p. routes of administration. Following a starting dose of 1 mg/kg, doses were escalated in subsequent mice until intolerable drug-related adverse effects were observed. MTD was defined as the maximum dose that was not associated dose-limiting adverse effects in mice. The MTD was confirmed in a group of 3 mice. Mice were continuously monitored for up to 4 hours post-dose.

On the set-up of data set [2]: method as in ref 19 (a number printed in a supplementary file, which may have a reference list of its own: not looked up in the article's list). The following applies: cited from earlier work.
Data set [3] has as its system human polymorphonuclear neutrophil. Further details: method as in ref 19 (a number printed in a supplementary file, which may have a reference list of its own: not looked up in the article's list). As to conditions: 0.1 - 1.0 µg auranofin/mL; cited from earlier work.
For data set [4], the system named is A673. Description: In vitro high-throughput screen of FDA-approved drug library (CellTiter-Glo). In kind it is cell-based. The following applies: 1 μmol/L drug, 72 hours. The method, then:
(§1) We screened, in parallel to the three computational approaches, an FDA-approved drug library containing 2,316 drugs (1,536 unique chemical entities). […] The drug screening study protocol employed is summarized in Supplementary Table S1.
(§2) Cells were grown to 80–90% confluence, harvested and aliquoted into 384-well plates (black μClear microplates, Greiner bio-one, Germany) at concentrations of 750–1,500 cells per well in a total volume of 25 μl/well using a Matrix Wellmate (Thermo Scientific). Cells were cultured for 72 hours in a 5% CO2 atmosphere at 37°C. Aliquots of 25 μl CellTiter-Glo® Reagent (Promega) were added directly to each well, the plates were incubated at room temperature for 20 min and the luminescence signal was measured according to the manufacturer's protocol. The measurements were made using Infinite® M200 Pro plate reader (Tecan, Switzerland). […] Data were normalized to percentage inhibition. […]
(§3) (A) Color scale for drug inhibition values. […]

The test system of data set [5] is RD-ES. The data set is described as above. The format is cell-based. The following applies: 1 μmol/L drug, 72 hours. The method, then: as §1, §2, §3
A further data set concerns Hs 919.T. The description is as above. In kind it is cell-based. As to conditions: 1 μmol/L drug, 72 hours, control cell line. The method, then:
as §1, §2, §3

Data set [6] concerns SK-ES-1. Described as above. The format is cell-based. As to conditions: 1 μmol/L drug, 72 hours. How it is done: as §1, §2, §3
For another data set, the system named is Hs 863.T. Put plainly: Hits validation, dose-response cell proliferation (CellTiter-Glo). In kind it is cell-based. The following applies: control cell line, 12-point dose-response, mean ± SD. The method in brief:
(§4)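 Dose-response proliferation test: drugs spanning 1 nmol/L–50 μmol/L were added one day after seeding 750–1,500 cells per well. CellTiter-Glo signal gave IC50s.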
(In ATP-based viability assays light output follows the ATP content of the culture.)

The next data set relates to COG-E-352. The data set is described as above. The format is cell-based. The following applies: 12-point dose-response 50 μmol/L to 1 nmol/L, mean ± SD. The method in brief:
as §4

For data set [7], the system named is A673. Described as above. The format is cell-based. As to conditions: 12-point dose-response 50 μmol/L to 1 nmol/L, mean ± SD. Summed up:
as §4

The next data set deals with CHLA-258. The data set is described as above. The format is cell-based. The following applies: 12-point dose-response 50 μmol/L to 1 nmol/L, mean ± SD. The method in brief:
as §4

The next data set concerns TC-71. The description is as above. In kind it is cell-based. The following applies: 12-point dose-response 50 μmol/L to 1 nmol/L, mean ± SD. Summed up:
as §4

The subject of data set [8] is RD-ES. Described as above. In kind it is cell-based. As to conditions: 12-point dose-response 50 μmol/L to 1 nmol/L, mean ± SD. Summed up: as §4
The next data set concerns Hs 822.T. The description is as above. The format is cell-based. The following applies: control cell line, 12-point dose-response, mean ± SD. Summed up:
as §4

Data set [9] concerns SK-ES-1. The data set is described as above. In kind it is cell-based. The following applies: 12-point dose-response 50 μmol/L to 1 nmol/L, mean ± SD. The method in brief: as §4
The next data set relates to Saccharomyces. Further details: method as in ref 18, ref 19. As to conditions: cited from earlier work.

Usually IC50 stands for the point on the concentration scale where inhibition reaches its midpoint. As for `CC(=O)OC[C@H]1O[C@@H]([S-])[C@H](OC(C)=O)[C@@H](OC(C)=O)[C@@H]1OC(C)=O.CCP(CC)CC.[Au+]` [Auranofin, auranofin], the maximum tolerated dose in data set [1] (solution formulation, i.p.) is listed as 6 mg/kg; in data set [1] (solution formulation, i.v.), 1 mg/kg; in data set [1] (suspension, single i.p. dose), 16 mg/kg. The “murine antibody production against SRBC” value in data set [2] was “inconsistent inhibition”. Further, the “superoxide production and phagocytosis” value in data set [3] is listed as “inhibited”. In the data set with A673 [4], the “% Inhibition A673” value is on record as 98%. In the data set with RD-ES [5], the “% Inhibition RD-ES” value was found to be 100%. For the same molecule, the “% Inhibition Hs 919.T.” value in the data set with Hs 919.T. was less than 50%. Moreover, the “% Inhibition SK-ES-1” value with SK-ES-1 [6] came out at 99%. Besides, the half-inhibitory concentration (IC50) came out at 3250 ± 120 nM with Hs 863.T.; 820 ± 190 nM in the data set on COG-E-352; 330 ± 220 nM in the data set with A673 [7]; 380 ± 190 nM in the data set with CHLA-258; 260 ± 140 nM in the data set on TC-71; 2450 ± 520 nM in the data set on RD-ES [8]. Further, the IC50 came to 1450 ± 90 nM in the data set on Hs 822.T. and 80 nM with SK-ES-1 [9]. In addition, the mutation effects result in the data set with Saccharomyces was “no m utation effects”.

(Values after paper PMC5354814, “In silico and in vitro drug screening identifies new therapeutic approaches for Ewing sarcoma” (Oncotarget, 2016).)
